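A five-concentration, 48-hour dose response in 96-well plates underlies each endpoint, interpolated linearly between surrounding concentrations. GI50: concentration for 50% inhibition of growth.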 Active and inactive are the calls of the source. Rule as the data show it: active = GI50 up to about 1.1 µM and inactive = higher.
Assays:
Assay in all cases: inhibition of tumour cell growth, NCI panel, 48 h
[1] = tested on: SNB-75
[2] = tested on: OVCAR-8
[3] = tested on: MDA-N
[4] = tested on: BT-549
[5] = tested on: ACHN
[6] = tested on: UO-31
[7] = tested on: DU-145
[8] = tested on: HCT-15
[9] = tested on: A549
[10] = tested on: SN12C
[11] = tested on: LOX IMVI
[12] = tested on: MOLT-4
[13] = tested on: IGROV-1
[14] = tested on: OVCAR-5
[15] = tested on: HOP-92
[16] = tested on: OVCAR-4
[17] = tested on: HCT-116
[18] = tested on: 786-0
[19] = tested on: PC-3
[20] = tested on: CCRF-CEM
[21] = tested on: NCI-H23
[22] = tested on: SK-MEL-2
[23] = tested on: SNB-19
[24] = tested on: M14
[25] = tested on: A498
[26] = tested on: NCI-H460
[27] = tested on: HCC 2998
[28] = tested on: MDA-MB-231
[29] = tested on: UACC-257
[30] = tested on: UACC-62
[31] = tested on: CAKI-1
[32] = tested on: RXF 393
[33] = tested on: KM12
[34] = tested on: NCI/ADR-RES
[35] = tested on: MDA-MB-435
[36] = tested on: K562
[37] = tested on: SW-620
[38] = tested on: SR
[39] = tested on: SK-MEL-28
[40] = tested on: NCI-H226
[41] = tested on: MCF7
[42] = tested on: HOP-62
[43] = tested on: RPMI-8226
[44] = tested on: SF-539
[45] = tested on: T47D
[46] = tested on: SF-295
[47] = tested on: OVCAR-3
[48] = tested on: U-251
[49] = tested on: EKVX
[50] = tested on: COLO 205
[51] = tested on: SK-MEL-5
[52] = tested on: SK-OV-3
[53] = tested on: TK-10
[54] = tested on: HT-29
[55] = tested on: HL-60

Cc1cc(OP2(=O)NCc3ncccc3O2)ccc1Cl (centres undefined)
GI50 [1]: > 100 µM (inactive) | GI50 [2]: > 100 µM (inactive) | GI50 [3]: > 100 µM (inactive) | GI50 [4]: > 100 µM (inactive) | GI50 [5]: > 100 µM (inactive) | GI50 [6]: > 100 µM (inactive) | GI50 [7]: > 100 µM (inactive) | GI50 [8]: > 100 µM | GI50 [9]: > 100 µM (inactive) | GI50 [10]: > 100 µM (inactive) | GI50 [11]: > 100 µM (inactive) | GI50 [12]: > 100 µM (inactive) | GI50 [13]: > 100 µM (inactive) | GI50 [14]: > 100 µM (inactive) | GI50 [15]: > 100 µM (inactive) | GI50 [16]: > 100 µM (inactive) | GI50 [17]: > 100 µM (inactive) | GI50 [18]: > 100 µM (inactive) | GI50 [19]: > 100 µM (inactive) | GI50 [20]: > 100 µM (inactive) | GI50 [21]: > 100 µM (inactive) | GI50 [22]: > 100 µM (inactive) | GI50 [23]: > 100 µM (inactive) | GI50 [24]: > 100 µM (inactive) | GI50 [25]: > 100 µM (inactive) | GI50 [26]: > 100 µM (inactive) | GI50 [27]: 40.6 µM (inactive) | GI50 [28]: > 100 µM (inactive) | GI50 [29]: > 100 µM (inactive) | GI50 [30]: > 100 µM (inactive) | GI50 [31]: > 100 µM (inactive) | GI50 [32]: > 100 µM (inactive) | GI50 [33]: 58.5 µM (inactive) | GI50 [34]: > 100 µM (inactive) | GI50 [35]: > 100 µM (inactive) | GI50 [36]: 84.5 µM (inactive) | GI50 [37]: > 100 µM (inactive) | GI50 [38]: > 100 µM (inactive) | GI50 [39]: > 100 µM (inactive) | GI50 [40]: > 100 µM (inactive) | GI50 [41]: > 100 µM (inactive) | GI50 [42]: > 100 µM (inactive) | GI50 [43]: > 100 µM (inactive) | GI50 [44]: > 100 µM (inactive) | GI50 [45]: > 100 µM (inactive) | GI50 [46]: > 100 µM (inactive) | GI50 [47]: > 100 µM (inactive) | GI50 [48]: > 100 µM (inactive) | GI50 [49]: > 100 µM (inactive) | GI50 [50]: > 100 µM (inactive) | GI50 [51]: > 100 µM (inactive)

O=C1Oc2ccccc2C(=O)/C1=C/N1C(=O)N/C(=C\c2cccc(O)c2)C1=O
GI50 [1]: 8.36 µM (inactive) | GI50 [2]: 33.2 µM (inactive) | GI50 [3]: 63.8 µM (inactive) | GI50 [4]: 21.8 µM (inactive) | GI50 [5]: 20.7 µM (inactive) | GI50 [6]: 29.5 µM (inactive) | GI50 [7]: 72.9 µM (inactive) | GI50 [8]: 61.9 µM | GI50 [9]: > 100 µM (inactive) | GI50 [10]: 69.5 µM (inactive) | GI50 [11]: > 100 µM (inactive) | GI50 [12]: 86.5 µM (inactive) | GI50 [13]: 31.3 µM (inactive) | GI50 [14]: > 100 µM (inactive) | GI50 [15]: > 100 µM (inactive) | GI50 [16]: 85.9 µM (inactive) | GI50 [17]: 76 µM (inactive) | GI50 [18]: 74.8 µM (inactive) | GI50 [52]: > 100 µM (inactive) | GI50 [19]: 54.3 µM (inactive) | GI50 [21]: 84.9 µM (inactive) | GI50 [53]: 46.1 µM (inactive) | GI50 [22]: 46.2 µM (inactive) | GI50 [23]: 45.3 µM (inactive) | GI50 [54]: > 100 µM (inactive) | GI50 [24]: 83.8 µM (inactive) | GI50 [26]: 59 µM (inactive) | GI50 [27]: 55.7 µM (inactive) | GI50 [28]: 62.4 µM (inactive) | GI50 [29]: > 100 µM (inactive) | GI50 [55]: 6.87 µM (inactive) | GI50 [31]: 41 µM (inactive) | GI50 [33]: 62.5 µM (inactive) | GI50 [34]: > 100 µM (inactive) | GI50 [35]: 54.2 µM (inactive) | GI50 [37]: 83.4 µM (inactive) | GI50 [39]: > 100 µM (inactive) | GI50 [40]: > 100 µM (inactive) | GI50 [41]: > 100 µM (inactive) | GI50 [42]: 69.7 µM (inactive) | GI50 [44]: 99.5 µM (inactive) | GI50 [45]: 54.2 µM (inactive) | GI50 [46]: 67.3 µM (inactive) | GI50 [47]: > 100 µM (inactive) | GI50 [48]: > 100 µM (inactive) | GI50 [49]: > 100 µM (inactive) | GI50 [50]: > 100 µM (inactive) | GI50 [51]: 70.8 µM (inactive)

From ChEMBL document CHEMBL1201862, “PubChem BioAssay data set” (2004)
